Tests used:
Assay type in all cases: cell-based
[1] = system: Epstein-Barr virus (EBV) reactivation in 1A2 cell line (lymphoma); experiment: EBV reactivation by romidepsin in 1A2 cell line (BZLF1/BRLF1 mRNA); settings: romidepsin 1 or 10 nM, 72 hours
Protocol: (§1) EBV-positive cell lines other than SNK6 and NK92MI were collected to identify EBV reactivity by romidepsin and the effect of sildenafil. As EBV-positive cell lines, the Daudi cell line (ATCC, CCL-213) and Raji cell line (ATCC, CCL-86), which are Burkitt's lymphoma cells, and the 1A2 cell line (ATCC, CRL-8119), which is a lymphoma cell, were treated with 1 or 10 nM of romidepsin for 72 hours, and mRNA expression of BZLF1 and BRLF1, genes whose expression is increased in EBV reactivation, was identified. The results for BZLF1 mRNA expression of the Daudi cell line are shown in FIG. 3A, and the results for BRLF1 mRNA expression are shown in FIG. 3B. In addition, the results for BZLF1 mRNA expression of the Raji cell line are shown in FIG. 3C, and the results for BRLF1 mRNA expression are shown in FIG. 3D. In addition, the results for BZLF1 mRNA expression of the 1A2 cell line are shown in FIG. 3E, and the results for BRLF1 mRNA expression are shown in FIG. 3F.

[2] = system: Epstein-Barr virus (EBV) reactivation in NK/T-cell lymphoma cell line SNK6; experiment: EBV reactivation by romidepsin in SNK6 cells (real-time PCR of BZLF1/BRLF1 mRNA, EBV copy number)
Protocol: (§2) The NK/T-cell lymphoma cell line SNK6 (source; Seoul National University) and the NK-cell leukemia cell line NK92MI (source; Seoul National University) were treated with the HDAC inhibitor, romidepsin 10 nM, and the PDE5 inhibitor, sildenafil 100 nM, for 24, 48, and 72 hours. After treatment, cells were harvested […]. Then, RNA was extracted using TRIzol reagent (Ambion, Life technologies), cDNA synthesis was performed using Omniscript RT kit (Qiagen), and the expression of BZLF1, an mRNA expressed during EBV reactivation, was identified through real-time PCR. The group treated with DMSO only was used as a control group.
(§3) BZLF1 mRNA expression was measured in the same manner as in Example 1, with a group treated with sildenafil alone and a group treated with 10 nM of romidepsin simultaneously at a concentration of sildenafil of 10, 100 or 1000 nM in SNK6 and NK92MI cells as experimental groups. The treatment time was 72 hours.
(§4) The inhibition of EBV reactivation by sildenafil (100 nM, 72 hours), which was shown by treatment with 10 nM of romidepsin in SNK6 and NK92MI cell lines for 72 hours, was measured through EBV copy number, BALF5, BZLF1, and BRLF1 expression. In addition, cell growth was measured by counting live cells through trypan blue staining. BALF5 is a gene with the function of generating viral DNA produced through EBV reactivation. DNA was extracted from the medium using QIAamp DNA mini kit (Qiagen) and real-time quantitative PCR was performed to measure […]. […] The results of measuring the number of EBV copies in the SNK6 cells identified as described above are shown in FIG. 5A, the expression of BZLF1 mRNA is shown in FIG. 5B, the expression of BRLF1 mRNA is shown in FIG. 5C, and the survival rate of tumor cells is shown in FIG. 5D. In addition, the expression of BRLF5 mRNA in NK92MI cells is shown in FIG. 6A, the expression of BZLF1 mRNA is shown in FIG. 6B, the expression of BRLF1 mRNA is shown in FIG. 6C, and the survival rate of tumor cells is shown in FIG. 6D.
BZLF1 and BRLF1 mRNA expressions were identified and measured by qPCR in the same manner as in Example 3.1 that EBV reactivation, which was shown by treatment of 10 nM of romidepsin in the SNK6 cell line, was inhibited by the PDE5 inhibitors of vardenafil, udenafil or tadalafil. In this connection, vardenafil was treated with 100 nM for 72 hours, udenafil was treated with 100 nM for 48 hours, and tadalafil was treated with 1000 nM for 24 hours. The expression of BZLF1 mRNA in the vardenafil-administered group is shown in FIG. 7A, and the expression of BRLF1 mRNA is shown in FIG. 7B. In addition, the expression of BZLF1 mRNA in the udenafil-administered experimental group is shown in FIG. 7C, and the expression of BRLF1 mRNA is shown in FIG. 7D. In addition, the expression of BZLF1 mRNA in the tadalafil-administered experimental group is shown in FIG. 7E, and the expression of BRLF1 mRNA is shown in FIG. 7F.

[3] = system: Epstein-Barr virus (EBV) reactivation in NK-cell leukemia cell line NK92MI; experiment: EBV reactivation by romidepsin in NK92MI cells (real-time PCR of BZLF1/BRLF1/BALF5); settings: 72 hours
Protocol: as §2, §3, §4

[4] = system: Epstein-Barr virus (EBV) reactivation in Daudi cell line (Burkitt's lymphoma); experiment: EBV reactivation by romidepsin in Daudi cell line (BZLF1/BRLF1 mRNA, EBV copy number); settings: sildenafil 100 nM + romidepsin 10 nM simultaneously, 72 hours, versus romidepsin alone
Protocol: as §1
When sildenafil and romidepsin were simultaneously treated in the Daudi cell line, which is a cell line showing EBV reactivation by romidepsin identified in Example 3.1, an experiment was performed to determine whether EBV reactivation by romidepsin was inhibited. In the Daudi cell line, a group treated with 10 nM of romidepsin and 100 nM of sildenafil separately for 72 hours and a group treated therewith simultaneously were used as experimental groups, and a group treated with DMSO only was used as a control group. In order to measure the EBV copy number secreted out of the cell by EBV reactivation, by extracting DNA from the medium and measuring the Ct value by real-time PCR and comparing the same with the reference EBV number, the EBV copy number was measured and shown in FIG. 4A. In the same manner as in Example 3.1, BZLF1 mRNA expression was measured and shown in FIG. 4B, and BRLF1 mRNA was measured and shown in FIG. 4C.

SNK6 cells = experiment: Cell growth/viability by counting live cells through trypan blue staining, SNK6; settings: sildenafil 100 nM + romidepsin 10 nM, 72 hours; versus romidepsin alone
Protocol: as §4

NK92MI cells = experiment: Cell growth/viability by counting live cells through trypan blue staining, NK92MI; settings: sildenafil 100 nM + romidepsin 10 nM, 72 hours; versus romidepsin alone
Protocol: as §4

[5] = SNK6 cell line, udenafil 100 nM for 48 hours with romidepsin 10 nM
[6] = SNK6 cell line, sildenafil 100 nM + romidepsin 10 nM, 72 hours, versus romidepsin alone
[7] = NK92MI cell line, sildenafil 100 nM + romidepsin 10 nM, versus romidepsin alone

C/C=C1\NC(=O)[C@H]2CSSCC/C=C/[C@H](CC(=O)N[C@H](C(C)C)C(=O)N2)OC(=O)[C@H](C(C)C)NC1=O [romidepsin]
expression of BRLF1 mRNA [1]: increased
expression of BZLF1 mRNA [1]: only the expression of BRLF1 was increased

CCCOc1ccc(S(=O)(=O)NCCC2CCCN2C)cc1-c1nc2c(CCC)nn(C)c2c(=O)[nH]1 (centres unmarked) [udenafil]
BRLF1 mRNA expression [2, 5]: decreased
BZLF1 mRNA expression [2, 5]: decreased

CCCc1nn(C)c2c(=O)[nH]c(-c3cc(S(=O)(=O)N4CCN(C)CC4)ccc3OCC)nc12 [sildenafil]
EBV copy number [2, 6]: decreased
expression of BRLF1 mRNA [2, 6]: decreased
expression of BZLF1 mRNA ([2]; SNK6 cells, sildenafil 100 nM together with romidepsin 10 nM, 72 hours, compared to romidepsin alone): significantly decreased
inhibition of EBV reactivation by romidepsin (BZLF1 mRNA expression) ([2]; SNK6 cells, sildenafil 10, 100 or 1000 nM in combination with romidepsin 10 nM, 72 hours): the effect of inhibiting the reactivation of EBV by romidepsin was observed
expression of BALF5 [3, 7]: decreased
expression of BRLF1 mRNA [3, 7]: decreased
expression of BZLF1 mRNA ([3]; NK92MI cells, sildenafil 100 nM together with romidepsin 10 nM, compared to romidepsin alone): significantly decreased
inhibition of EBV reactivation by romidepsin (BZLF1 mRNA expression) ([3]; NK92MI cells, sildenafil 10, 100 or 1000 nM in combination with romidepsin 10 nM): the effect of inhibiting the reactivation of EBV by romidepsin was observed
EBV copy number (DNA from the medium) [4]: no significant difference
expression of BRLF1 mRNA [4]: no significant difference
expression of BZLF1 mRNA [4]: no significant difference
viability of the SNK6 cell line (trypan blue) (SNK6 cells): decreased
viability of the NK92MI cell line (trypan blue) (NK92MI cells): decreased
